molecular target: T1, chimeric human H3 receptor (Homo sapiens, UniProt Q9Y5N1); experiment: Chimeric human H3 receptor screening GTP binding assay (inhibition of histamine-stimulated GTP-gamma35S binding, Example 8); format: biochemical; settings: 1 h; assay described in Example 8; symbol "!" in column headed Ki; read-out: Ki ("!": percent inhibition of agonist-induced GTP-gammaS binding to H3)
T1 construct: rat Galpha-i2 (Gnai2, rat); made in house; host or cells: Sf9 insect cells (baculovirus); P2 membranes
Summary of the method: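 Sf9 membranes co-expressing chimeric human H3 receptor and heterotrimeric G-protein (35 μg protein) incubated 60 min at room temperature with 4 μM compound, 1 μM histamine and 125 pM GTP-gamma35S in pH 7.4 buffer with 10 μM GDP. Filter-bound radioactivity, nonspecific (10 μM GTP-gammaS) subtracted, reported as % inhibition of histamine signal.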

T1 sequence (Q9Y5N1 with tags, fused parts or gaps): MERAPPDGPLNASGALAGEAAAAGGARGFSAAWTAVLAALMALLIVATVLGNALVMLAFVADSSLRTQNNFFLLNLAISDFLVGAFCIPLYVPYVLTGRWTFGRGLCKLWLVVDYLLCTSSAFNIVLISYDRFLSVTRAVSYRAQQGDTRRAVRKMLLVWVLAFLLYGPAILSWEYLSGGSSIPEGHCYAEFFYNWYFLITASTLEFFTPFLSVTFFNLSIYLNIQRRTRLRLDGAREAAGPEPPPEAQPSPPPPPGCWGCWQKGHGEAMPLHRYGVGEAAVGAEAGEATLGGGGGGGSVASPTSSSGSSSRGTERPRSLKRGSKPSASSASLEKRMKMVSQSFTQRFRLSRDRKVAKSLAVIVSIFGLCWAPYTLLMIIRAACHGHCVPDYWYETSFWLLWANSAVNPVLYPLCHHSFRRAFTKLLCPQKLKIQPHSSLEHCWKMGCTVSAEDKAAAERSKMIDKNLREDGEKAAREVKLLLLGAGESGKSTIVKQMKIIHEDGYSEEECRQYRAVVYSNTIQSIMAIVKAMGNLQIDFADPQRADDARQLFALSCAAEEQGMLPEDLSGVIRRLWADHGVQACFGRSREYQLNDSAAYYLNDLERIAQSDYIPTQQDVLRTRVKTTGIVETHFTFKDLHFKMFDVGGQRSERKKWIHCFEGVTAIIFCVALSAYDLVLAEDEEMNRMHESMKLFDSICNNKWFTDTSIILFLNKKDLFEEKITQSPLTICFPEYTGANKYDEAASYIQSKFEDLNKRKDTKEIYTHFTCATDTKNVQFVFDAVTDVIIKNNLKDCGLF

Inhibition at 4 µM, ≥ 90%:
O=C(c1cccnc1Oc1ccc(Cl)cc1)N1CCc2cnc(N3CCN(C4CCC4)CC3)nc2CC1 [Compound 497]
Cc1ccc(C)c(/C=C/C(=O)N2CCc3cnc(N4CCN(C5CCC5)CC4)nc3CC2)c1 [Compound 577, 2-(4-cyclobutylpiperazin-1-yl)-7-[(2E)-3-(2,5-dimethylphenyl)prop-2-enoyl]-6,7,8,9-tetrahydro-5H-pyrimido[4,5-d]azepine]
O=C(/C=C/c1ccccc1F)N1CCc2cnc(N3CCN(C4CCC4)CC3)nc2CC1 [Compound 547, 2-(4-cyclobutylpiperazin-1-yl)-7-[(2E)-3-(2-fluorophenyl)prop-2-enoyl]-6,7,8,9-tetrahydro-5H-pyrimido[4,5-d]azepine]
O=C(c1c(F)cccc1F)N1CCc2cnc(N3CCN(C4CCC4)CC3)nc2CC1 [Compound 389, 2-(4-cyclobutylpiperazin-1-yl)-7-(2,6-difluorobenzoyl)-6,7,8,9-tetrahydro-5H-pyrimido[4,5-d]azepine]
O=C(c1cccc2ccccc12)N1CCc2cnc(N3CCN(C4CCC4)CC3)nc2CC1 [Compound 404, 2-(4-cyclobutylpiperazin-1-yl)-7-(1-naphthoyl)-6,7,8,9-tetrahydro-5H-pyrimido[4,5-d]azepine]
Cc1cnc(C(=O)N2CCc3cnc(N4CCN(C5CCC5)CC4)nc3CC2)cn1 [Compound 486, 2-(4-cyclobutylpiperazin-1-yl)-7-[(5-methylpyrazin-2-yl)carbonyl]-6,7,8,9-tetrahydro-5H-pyrimido[4,5-d]azepine]
Cc1ccsc1C(=O)N1CCc2cnc(N3CCN(C4CCC4)CC3)nc2CC1 [Compound 444, 2-(4-cyclobutylpiperazin-1-yl)-7-[(3-methyl-2-thienyl)carbonyl]-6,7,8,9-tetrahydro-5H-pyrimido[4,5-d]azepine]
Cc1ccc(Oc2ncccc2C(=O)N2CCc3cnc(N4CCN(C5CCC5)CC4)nc3CC2)c(C)c1 [Compound 503, 2-(4-cyclobutylpiperazin-1-yl)-7-{[2-(2,4-dimethylphenoxy)pyridin-3-yl]carbonyl}-6,7,8,9-tetrahydro-5H-pyrimido[4,5-d]azepine]
O=C(c1ccccc1Oc1ccc(Cl)cc1)N1CCc2cnc(N3CCN(C4CCC4)CC3)nc2CC1 [Compound 419, 7-[2-(4-chlorophenoxy)benzoyl]-2-(4-cyclobutylpiperazin-1-yl)-6,7,8,9-tetrahydro-5H-pyrimido[4,5-d]azepine]
Nc1ccc(Cl)cc1C(=O)N1CCc2cnc(N3CCN(C4CCC4)CC3)nc2CC1 [Compound 536, 4-chloro-2-{[2-(4-cyclobutylpiperazin-1-yl)-5,6,8,9-tetrahydro-7H-pyrimido[4,5-d]azepin-7-yl]carbonyl}aniline]
Nc1ccc(C(=O)N2CCc3cnc(N4CCN(C5CCC5)CC4)nc3CC2)cc1 [Compound 533, 4-{[2-(4-cyclobutylpiperazin-1-yl)-5,6,8,9-tetrahydro-7H-pyrimido[4,5-d]azepin-7-yl]carbonyl}aniline]
O=C(c1ccccc1-c1ccccc1)N1CCc2cnc(N3CCN(C4CCC4)CC3)nc2CC1 [Compound 409, 7-(biphenyl-2-ylcarbonyl)-2-(4-cyclobutylpiperazin-1-yl)-6,7,8,9-tetrahydro-5H-pyrimido[4,5-d]azepine]
Cn1c(C(=O)N2CCc3cnc(N4CCN(C5CCC5)CC4)nc3CC2)cc2ccccc21 [Compound 461, 2-(4-cyclobutylpiperazin-1-yl)-7-[(1-methyl-1H-indol-2-yl)carbonyl]-6,7,8,9-tetrahydro-5H-pyrimido[4,5-d]azepine]
O=C(c1ccnc2ccccc12)N1CCc2cnc(N3CCN(C4CCC4)CC3)nc2CC1 [Compound 492, 2-(4-cyclobutylpiperazin-1-yl)-7-(quinolin-4-ylcarbonyl)-6,7,8,9-tetrahydro-5H-pyrimido[4,5-d]azepine]
O=C(c1cccc(C(F)(F)F)c1F)N1CCc2cnc(N3CCN(C4CCC4)CC3)nc2CC1 [Compound 399, 2-(4-cyclobutylpiperazin-1-yl)-7-[2-fluoro-3-(trifluoromethyl)benzoyl]-6,7,8,9-tetrahydro-5H-pyrimido[4,5-d]azepine]

same assay, conditions: 1 h; assay of Example 8; symbol "!" in column headed Ki; read-out: percent inhibition of agonist-induced GTP-gammaS binding to H3

Inhibition at 4 µM, ≥ 90%:
Cc1cccc(OCC(=O)N2CCc3cnc(N4CCN(C5CCC5)CC4)nc3CC2)c1C [Compound 327, 2-(4-cyclobutylpiperazin-1-yl)-7-[(2,3-dimethylphenoxy)acetyl]-6,7,8,9-tetrahydro-5H-pyrimido[4,5-d]azepine]
CC(C)CN1CCc2cnc(N3CCN(C4CCC4)CC3)nc2CC1 [Compound 251, 2-(4-cyclobutylpiperazin-1-yl)-7-isobutyl-6,7,8,9-tetrahydro-5H-pyrimido[4,5-d]azepine]
CCC(C(=O)N1CCc2cnc(N3CCN(C4CCC4)CC3)nc2CC1)c1ccc(OC)cc1 (stereo not shown) [Compound 352, 2-(4-cyclobutylpiperazin-1-yl)-7-[2-(4-methoxyphenyl)butanoyl]-6,7,8,9-tetrahydro-5H-pyrimido[4,5-d]azepine]
O=C(c1cccnc1)N1CCc2cnc(N3CCN(C4CCC4)CC3)nc2CC1 [Compound 198, 2-(4-cyclobutylpiperazin-1-yl)-7-(pyridin-3-ylcarbonyl)-6,7,8,9-tetrahydro-5H-pyrimido[4,5-d]azepine]
O=C(C1CCC1)N1CCc2cnc(N3CCN(C4CCC4)CC3)nc2CC1 [Compound 216, 7-(cyclobutylcarbonyl)-2-(4-cyclobutylpiperazin-1-yl)-6,7,8,9-tetrahydro-5H-pyrimido[4,5-d]azepine]
CC(C)CC(=O)N1CCc2cnc(N3CCN(C4CCC4)CC3)nc2CC1 [Compound 208, 2-(4-cyclobutylpiperazin-1-yl)-7-(3-methylbutanoyl)-6,7,8,9-tetrahydro-5H-pyrimido[4,5-d]azepine]
Cc1ccc(C(C(=O)N2CCc3cnc(N4CCN(C5CCC5)CC4)nc3CC2)c2ccccc2)cc1 (stereo not shown) [Compound 356, 2-(4-cyclobutylpiperazin-1-yl)-7-[(4-methylphenyl)(phenyl)acetyl]-6,7,8,9-tetrahydro-5H-pyrimido[4,5-d]azepine]
COc1ccc(Br)cc1CC(=O)N1CCc2cnc(N3CCN(C4CCC4)CC3)nc2CC1 [Compound 311, 7-[(5-bromo-2-methoxyphenyl)acetyl]-2-(4-cyclobutylpiperazin-1-yl)-6,7,8,9-tetrahydro-5H-pyrimido[4,5-d]azepine]
Fc1ccccc1CN1CCc2cnc(N3CCN(C4CCC4)CC3)nc2CC1 [Compound 230, 2-(4-cyclobutylpiperazin-1-yl)-7-(2-fluorobenzyl)-6,7,8,9-tetrahydro-5H-pyrimido[4,5-d]azepine]

same assay, conditions: symbol ! in Ki; test compound 4 μM, 1 μM histamine; read-out: percent inhibition of agonist-induced GTP-gammaS binding to H3

Inhibition at 4 µM, ≥ 90%:
CC(c1ccc(F)cc1)N1CCc2c(ncnc2N2CCN(C3CCC3)CC2)C1 (stereo not shown) [Compound 104, 4-(4-cyclobutylpiperazin-1-yl)-7-[1-(4-fluorophenyl)ethyl]-5,6,7,8-tetrahydropyrido[3,4-d]pyrimidine]
Fc1cccc(CN2CCc3ncnc(N4CCN(C5CCC5)CC4)c3CC2)c1 [Compound 146, 4-(4-cyclobutylpiperazin-1-yl)-7-(3-fluorobenzyl)-6,7,8,9-tetrahydro-5H-pyrimido[4,5-d]azepine]
COc1ccc(OC)c(CN2CCc3c(ncnc3N3CCN(C4CCC4)CC3)C2)c1 [Compound 95, 4-(4-cyclobutylpiperazin-1-yl)-7-(2,5-dimethoxybenzyl)-5,6,7,8-tetrahydropyrido[3,4-d]pyrimidine]
c1cc2c(cc1CN1CCc3nc(N4CCN(C5CCC5)CC4)ncc3C1)OCCO2 [Compound 638, 2-(4-cyclobutylpiperazin-1-yl)-6-(2,3-dihydro-1,4-benzodioxin-6-ylmethyl)-5,6,7,8-tetrahydropyrido[4,3-d]pyrimidine]
COc1ccccc1C(=O)N1CCc2c(ncnc2N2CCN(C3CCC3)CC2)C1 [Compound 28, 4-(4-cyclobutylpiperazin-1-yl)-7-(2-methoxybenzoyl)-5,6,7,8-tetrahydropyrido[3,4-d]pyrimidine]
CCCCCN1CCc2nc(N3CCN(C4CCC4)CC3)ncc2C1 [Compound 629, 2-(4-cyclobutylpiperazin-1-yl)-6-pentyl-5,6,7,8-tetrahydropyrido[4,3-d]pyrimidine]
CC(C)C(=O)N1CCc2c(ncnc2N2CCN(C3CCC3)CC2)C1 [Compound 59, 4-(4-cyclobutylpiperazin-1-yl)-7-isobutyryl-5,6,7,8-tetrahydropyrido[3,4-d]pyrimidine]
COCCC(=O)N1CCc2c(ncnc2N2CCN(C3CCC3)CC2)C1 [Compound 51, 4-(4-cyclobutylpiperazin-1-yl)-7-(3-methoxypropanoyl)-5,6,7,8-tetrahydropyrido[3,4-d]pyrimidine]
c1ccc2nc(CN3CCc4ncnc(N5CCN(C6CCC6)CC5)c4CC3)ccc2c1 [Compound 174, 4-(4-cyclobutylpiperazin-1-yl)-7-(quinolin-2-ylmethyl)-6,7,8,9-tetrahydro-5H-pyrimido[4,5-d]azepine]
CCC(C)C(=O)N1CCc2c(ncnc2N2CCN(C3CCC3)CC2)C1 (stereo not shown) [Compound 60, 4-(4-cyclobutylpiperazin-1-yl)-7-(2-methylbutanoyl)-5,6,7,8-tetrahydropyrido[3,4-d]pyrimidine]
